Measured values reported in US20250186405A1, “Compound For Use In Treating Narcolepsy” (Alkermes, Inc., priority 2023, published 2025).

System: healthy adult subjects
Test: Part 1 SAD: treatment-emergent adverse events after single oral dose (N = 6 per dose)
Protocol: Part 1 of the study is a SAD evaluation in healthy subjects consisting of 6 cohorts: Cohorts 1-6 received powder-in-capsule or matching placebo. There were approximately 8 subjects per cohort. Dose levels were as follows:
No food was given for at least 4 hours after dose administration. Water was allowed ad libitum except for the time 1 hour before and 1 hour after study drug administration. Safety assessments including AEs, safety ECGs, vital signs, and clinical laboratory tests were conducted, and plasma PK samples were collected.
Adverse events (AEs) and serious adverse events (SAEs) were monitored continuously until the completion of the study.

CS(=O)(=O)N[C@H]1CCCN2C(=O)COc3ccccc3C3CCC(CC3)OCC12 (stereo partly drawn) [Compound A, N-[(4S,4aR,7α,10α)-1,2,3,4,4a,5,7,8,9,10,16,17-dodecahydro-17-oxo-7,10-ethanopyrido[1,2-d][1,7,4]benzodioxaazacyclotridecin-4-yl]methanesulfonamide]
11 n: TEAE by Highest Severity: Mild (Total (N = 36))
10 n: TEAE by Highest Relationship: Related (Total (N = 36))
4 n: TEAE by Highest Relationship: Related (15 mg) | TEAE by Highest Severity: Mild (15 mg) | Any TEAE (25 mg) | TEAE Dizziness (25 mg) | TEAE by Highest Relationship: Related (25 mg) | TEAE by Highest Severity: Mild (25 mg) | TEAE Pollakiuria (Total (N = 36)) | TEAE by Highest Severity: Moderate (Total (N = 36))
0 n: TEAE Nausea (15 mg) | TEAE Oropharyngeal pain (15 mg) | TEAE Pharyngitis (15 mg) | TEAE Skin hyperpigmentation (15 mg) | TEAE Upper respiratory tract infection (15 mg) | TEAE Urinary incontinence (15 mg) | TEAE by Highest Relationship: Not Related (15 mg) | TEAE by Highest Severity: Moderate (15 mg) | TEAE by Highest Severity: Severe (15 mg) | AE Leading to Study Drug Discontinuation (25 mg) | Any SAEs (25 mg) | Death (25 mg) | TEAE Anxiety (25 mg) | TEAE Aspartate aminotransferase increased (25 mg) | TEAE Back pain (25 mg) | TEAE Blood pressure increased (25 mg) | TEAE Dermatitis contact (25 mg) | TEAE Headache (25 mg) | TEAE Hot flush (25 mg) | TEAE Hypervigilance (25 mg) | TEAE Insomnia (25 mg) | TEAE Metamorphopsia (25 mg) | TEAE Nausea (25 mg) | TEAE Pharyngitis (25 mg) | TEAE Skin hyperpigmentation (25 mg) | TEAE Upper respiratory tract infection (25 mg) | TEAE Urinary incontinence (25 mg) | TEAE Vision blurred (25 mg) | TEAE by Highest Relationship: Not Related (25 mg) | TEAE by Highest Severity: Moderate (25 mg) | TEAE by Highest Severity: Severe (25 mg) | AE Leading to Study Drug Discontinuation (50 mg) | Any SAEs (50 mg) | Death (50 mg) | TEAE Anxiety (50 mg) | TEAE Back pain (50 mg) | TEAE Dermatitis contact (50 mg) | TEAE Fatigue (50 mg) | TEAE Hot flush (50 mg) | TEAE Hypervigilance (50 mg) | TEAE Insomnia (50 mg) | TEAE Metamorphopsia (50 mg) | TEAE Oropharyngeal pain (50 mg) | TEAE Pharyngitis (50 mg) | TEAE Skin hyperpigmentation (50 mg) | TEAE Upper respiratory tract infection (50 mg) | TEAE by Highest Relationship: Not Related (50 mg) | TEAE by Highest Severity: Severe (50 mg) | AE Leading to Study Drug Discontinuation (Total (N = 36)) | Any SAEs (Total (N = 36)) | Death (Total (N = 36)) | TEAE Back pain (Total (N = 36)) | TEAE by Highest Severity: Severe (Total (N = 36))
15 n: Any TEAE (Total (N = 36))
5 n: TEAE by Highest Relationship: Not Related (Total (N = 36))
well tolerated: Tolerability (single doses 1 to 50 mg)
1 n: TEAE Metamorphopsia (15 mg) | TEAE Pollakiuria (15 mg) | TEAE Vision blurred (15 mg) | TEAE Fatigue (25 mg) | TEAE Oropharyngeal pain (25 mg) | TEAE Pollakiuria (25 mg) | TEAE Aspartate aminotransferase increased (50 mg) | TEAE Blood pressure increased (50 mg) | TEAE Headache (50 mg) | TEAE Urinary incontinence (50 mg) | TEAE Vision blurred (50 mg) | TEAE by Highest Severity: Mild (50 mg) | TEAE by Highest Severity: Moderate (50 mg) | TEAE Anxiety (Total (N = 36)) | TEAE Aspartate aminotransferase increased (Total (N = 36)) | TEAE Blood pressure increased (Total (N = 36)) | TEAE Dermatitis contact (Total (N = 36)) | TEAE Fatigue (Total (N = 36)) | TEAE Headache (Total (N = 36)) | TEAE Hot flush (Total (N = 36)) | TEAE Hypervigilance (Total (N = 36)) | TEAE Insomnia (Total (N = 36)) | TEAE Metamorphopsia (Total (N = 36)) | TEAE Oropharyngeal pain (Total (N = 36)) | TEAE Pharyngitis (Total (N = 36)) | TEAE Skin hyperpigmentation (Total (N = 36)) | TEAE Upper respiratory tract infection (Total (N = 36)) | TEAE Urinary incontinence (Total (N = 36))
2 n: Any TEAE (50 mg) | TEAE Dizziness (50 mg) | TEAE Nausea (50 mg) | TEAE Pollakiuria (50 mg) | TEAE by Highest Relationship: Related (50 mg) | TEAE Nausea (Total (N = 36)) | TEAE Vision blurred (Total (N = 36))
8 n: TEAE Dizziness (Total (N = 36))
